Measurements: ChEMBL document CHEMBL1130557, “Synthesis and biological evaluation of 14-alkoxymorphinans. 14.1 14-ethoxy-5-methyl substituted indolomorphinans with opioid receptor selectivity” (Bioorg Med Chem Lett, 1997)

Key:
[1] = biological target: T1, Delta-type opioid receptor (Rattus norvegicus, UniProt P33533); test: Compound was evaluated for the binding affinity towards Opioid receptor delta 1 in rat brain homogenates using [3H]naltrindole as radioligand; assay type: tissue-based
[2] = biological target: T1, Delta-type opioid receptor; test: Compound was evaluated for the binding affinity towards Opioid receptor delta 1 in rat brain homogenates using [3H]DIDI as radioligand; assay type: tissue-based
[3] = biological target: Kappa-type opioid receptor (Rattus norvegicus, UniProt P34975); test: Compound was evaluated for the binding affinity towards Opioid receptor kappa 1 in rat brain homogenates using [3H]U-69593 as radioligand; assay type: tissue-based
[4] = biological target: Mu-type opioid receptor (Rattus norvegicus, UniProt P33535); test: Compound was evaluated for the binding affinity towards mu opioid receptor in rat brain homogenates using [3H]DAMGO as radioligand; assay type: tissue-based
[5] = species on record: Cavia porcellus; test: Compound was evaluated for the percent inhibition of twitch height at 10 uM concentration in guinea pig ileum assay; assay type: functional
[6] = species on record: Cavia porcellus; test: Compound was evaluated for the percent inhibition of electrically evoked twitch height at 10 uM concentration in guinea pig ileum (GPI); assay type: functional
[7] = species on record: Mus musculus; test: Compound was evaluated for the percent inhibition of electrically evoked twitch height at 10 uM concentration in mouse vas deferens (MVD); assay type: functional
[8] = biological target: Kappa-type opioid receptor (Mus musculus) (UniProt P33534)
Kappa-type opioid receptor (Mus musculus), sequence (P33534 whole entry): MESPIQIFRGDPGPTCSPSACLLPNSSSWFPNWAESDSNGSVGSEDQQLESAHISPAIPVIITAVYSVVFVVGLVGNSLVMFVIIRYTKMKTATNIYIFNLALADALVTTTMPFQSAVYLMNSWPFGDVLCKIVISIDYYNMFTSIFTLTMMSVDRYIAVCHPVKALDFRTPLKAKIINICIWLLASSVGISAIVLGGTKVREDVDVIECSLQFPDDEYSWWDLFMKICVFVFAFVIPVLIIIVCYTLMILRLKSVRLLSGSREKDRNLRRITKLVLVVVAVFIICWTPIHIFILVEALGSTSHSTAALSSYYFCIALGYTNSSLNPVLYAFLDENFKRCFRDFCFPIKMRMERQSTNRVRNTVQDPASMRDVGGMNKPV
Description: Tested for antagonist activity against Opioid receptor kappa 1 in mouse vas deferens preparation by using C1977 as antagonist

Kappa-type opioid receptor, sequence (P34975 whole entry): as the sequence (P33534 whole entry) above, with D11E, S17A, S51P, A308V counted along it
T1 sequence (P33533 whole entry): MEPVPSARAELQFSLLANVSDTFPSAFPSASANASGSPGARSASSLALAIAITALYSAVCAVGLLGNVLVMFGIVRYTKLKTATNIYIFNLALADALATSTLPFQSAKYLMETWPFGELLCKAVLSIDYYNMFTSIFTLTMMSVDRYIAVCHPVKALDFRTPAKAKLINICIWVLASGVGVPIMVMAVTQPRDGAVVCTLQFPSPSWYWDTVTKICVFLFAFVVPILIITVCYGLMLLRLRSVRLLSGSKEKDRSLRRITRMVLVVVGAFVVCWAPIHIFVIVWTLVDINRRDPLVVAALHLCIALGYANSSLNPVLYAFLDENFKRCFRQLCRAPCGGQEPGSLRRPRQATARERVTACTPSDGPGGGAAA
Mu-type opioid receptor, sequence (P33535 whole entry): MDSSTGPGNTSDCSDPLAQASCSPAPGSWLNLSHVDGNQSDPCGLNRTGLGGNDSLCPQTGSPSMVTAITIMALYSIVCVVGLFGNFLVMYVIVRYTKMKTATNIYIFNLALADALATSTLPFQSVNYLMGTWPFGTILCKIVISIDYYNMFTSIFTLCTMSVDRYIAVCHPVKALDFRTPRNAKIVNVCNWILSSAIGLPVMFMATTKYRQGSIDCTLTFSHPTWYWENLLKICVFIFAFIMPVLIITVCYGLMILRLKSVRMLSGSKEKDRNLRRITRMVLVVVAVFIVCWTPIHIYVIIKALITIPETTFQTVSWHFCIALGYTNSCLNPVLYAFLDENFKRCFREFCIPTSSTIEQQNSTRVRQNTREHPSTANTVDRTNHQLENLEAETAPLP

Structure (SMILES)	Ki [1]	Ki [2]	Ki [3]	Ki [4]	inhibition at 10 µM [5]	inhibition at 10 µM [6]	inhibition at 10 µM [7]	Ke [8]
Oc1ccc2c3c1O[C@H]1c4[nH]c5ccccc5c4C[C@@]4(O)[C@@H](C2)N(CC2CC2)CC[C@]314 [NALTRINDOLE]	0.33 nM	0.09 nM	–	–	–	–	–	–
C=CCN1CC[C@]23c4c5ccc(O)c4O[C@@]2(C)c2[nH]c4ccccc4c2C[C@@]3(OCC)[C@H]1C5	10.8 nM	29.9 nM	765 nM	667 nM	–	–	–	–
CCO[C@@]12Cc3c([nH]c4ccccc34)[C@]3(C)Oc4c(O)ccc5c4[C@@]31CCN(C)[C@@H]2C5	5.75 nM	8.81 nM	286 nM	715 nM	21%	–	–	–
CCO[C@@]12Cc3c([nH]c4ccccc34)[C@]3(C)Oc4c(O)ccc5c4[C@@]31CCN(CC1CC1)C2C5	0.78 nM	14 nM	59.2 nM	38.7 nM	–	32%	23%	529 nM
